# Several values for one entry are separate records, joined by “and”; a condition that tells them apart may be missing. Equal values may be shown once.
# Legend:
# Assay type in all cases: physicochemical
# [1] = Solubility in neat solvents, shake-flask with spectrophotometric determination; conditions: for solubility at 24 h: 25 °C, organic solvent or mixture, thermodynamic from solid
# Procedure: (§1) The calibration curves for each derivative were obtained using successful dilutions of initial stock solutions followed by spectrophotometric measurements of the obtained solutions with decreasing concentration. The concentration ranges for the derivatives 1, 2, and 3 were 0.0081–0.0405 mg/mL, 0.0077–0.0385 mg/mL, and 0.0068–0.017 mg/mL, respectively. Methanol was used both as a solvent, as well as a reference for spectrophotometric measurements. […] The A360 spectrophotometer from AOE Instruments was used for the preparation of the calibration curves. […] Three calibration curves were prepared for each derivative and then averaged.
# (§2) A multi-step procedure was employed in order to find the solubility of the studied derivatives in the selected solvents. First of all, the excess amount of the considered compound was added to test tubes containing either neat solvents or their mixtures with water in different proportions, thus forming binary solvents. Saturated solutions were obtained in this way, placed in a Shaker Incubator ES-20/60 from Biosan, and incubated for 24 h at 298.1 K. The temperature adjustment was possible with a 0.1-degree accuracy, and the variance within a 24 h cycle was 0.5 degrees. The samples were simultaneously mixed at 60 rev/min. After incubation, the samples were filtered with the help of plastic syringes equipped with PTFE filters with 0.22 µm pore size. The obtained filtrates were diluted with methanol in another set of test tubes. In order to determine the mole fractions of a solute in the solution, 1 mL of the filtered samples was weighed in 10 mL volumetric flasks using a RADWAG AS 110 R2.PLUS analytical balance. The samples diluted with methanol were measured spectrophotometrically using the same instrument as was used in the case of calibration curves. The spectra were recorded in the wavelength range of 190–500 nm, and the resolution was 1 nm. Methanol was used if further dilution of the sample was required, and it was also used as a reference for calibrating the spectrophotometer. The absorbance values at 315 nm, 321 nm, and 321 nm were taken into account for derivatives 1, 2, and 3, respectively. Based on the calibration curves, the concentration of the solute in the samples was determined together with its mole fraction. Three separate measurements were conducted, and the final values are the results of averaging them.
# [2] = Solubility in DMSO-water binary mixtures; conditions: for solubility at 24 h: 25 °C, thermodynamic from solid
# Procedure: as §1, §2
# [3] = Solubility in NMP-water binary mixtures; conditions: for solubility at 24 h: thermodynamic from solid
# Procedure: as §1, §2
# [4] = neat γ-nonanoic lactone, 298.1 K
structure (smiles),measurement,setting,value
"Nc1cccc(C(=O)NN=C2C(=O)Nc3ccc([N+](=O)[O-])cc32)c1 [derivative 2, 3-Amino-N′-[5-nitro-2-oxo-1,2-dihydro-3H-indol-3-ylidene]benzohydrazide]",solubility at 24 h,"[1]; neat DMF, 298.1 K",15300 µg/mL
same,solubility at 24 h,"[1]; neat DMP, 298.1 K",290 µg/mL
same,solubility at 24 h,"[1]; neat DMSO, 298.1 K",21400 µg/mL
same,solubility at 24 h,"[1]; neat NMP, 298.1 K",32700 µg/mL
same,solubility at 24 h,"[1]; neat acetone, 298.1 K",900 µg/mL
same,solubility at 24 h,"[1]; neat acetonitrile, 298.1 K",610 µg/mL
same,solubility at 24 h,"[1]; neat cyrene, 298.1 K",750 µg/mL
same,solubility at 24 h,"[1]; neat diglyme, 298.1 K",1190 µg/mL
same,solubility at 24 h,"[1]; neat dioxane, 298.1 K",960 µg/mL
same,solubility at 24 h,"[1]; neat ethyl lactate, 298.1 K",560 µg/mL
same,solubility at 24 h,"[1]; neat methanol, 298.1 K",310 µg/mL
same,solubility at 24 h,"[1]; neat tetraglyme, 298.1 K",1790 µg/mL
same,solubility at 24 h,"[1]; neat triglyme, 298.1 K",420 µg/mL
same,solubility at 24 h,"[1]; neat γ-heptalactone, 298.1 K",1090 µg/mL
same,solubility at 24 h,[1]; [4],710 µg/mL
same,solubility at 24 h,[1]; neat 1-butanol,70 µg/mL
same,solubility x,"[1]; neat 1-butanol, 298.1 K",0.21 (0.01) × 10^−4 mole fraction
same,solubility at 24 h,[1]; neat 1-propanol,100 µg/mL
same,solubility x,"[1]; neat 1-propanol, 298.1 K",0.23 (0.01) × 10^−4 mole fraction
same,solubility at 24 h,[1]; neat 4FM,3470 µg/mL
same,solubility x,"[1]; neat 4FM, 298.1 K",1.06 (0.04) × 10^−3 mole fraction
same,solubility x,"[1]; neat DMF, 298.1 K",3.66 × 10^−3 mole fraction and 3.66 (0.06) × 10^−3 mole fraction
same,solubility x,"[1]; neat DMP, 298.1 K",1.05 (0.03) × 10^−4 mole fraction
same,solubility x,"[1]; neat DMSO, 298.1 K",4.63 × 10^−3 mole fraction and 4.63 (0.14) × 10^−3 mole fraction
same,solubility x,"[1]; neat NMP, 298.1 K",9.80 × 10^−3 mole fraction and 9.80 (0.13) × 10^−3 mole fraction
same,solubility x,"[1]; neat acetonitrile, 298.1 K",0.96 (0.03) × 10^−4 mole fraction
same,solubility x,"[1]; neat cyrene, 298.1 K",2.36 (0.04) × 10^−4 mole fraction
same,solubility x,"[1]; neat diglyme, 298.1 K",5.22 (0.10) × 10^−4 mole fraction
same,solubility x,"[1]; neat dioxane, 298.1 K",2.49 (0.05) × 10^−4 mole fraction
same,solubility at 24 h,[1]; neat ethanol,150 µg/mL
same,solubility x,"[1]; neat ethanol, 298.1 K",0.26 (0.01) × 10^−4 mole fraction
same,solubility x,"[1]; neat ethyl lactate, 298.1 K",1.95 (0.04) × 10^−4 mole fraction
same,solubility x,"[1]; neat methanol, 298.1 K",0.39 (0.01) × 10^−4 mole fraction
same,solubility x,"[1]; neat tetraglyme, 298.1 K",1.20 (0.02) × 10^−3 mole fraction
same,solubility x,"[1]; neat triglyme, 298.1 K",2.34 (0.06) × 10^−4 mole fraction
same,solubility x,"[1]; neat γ-heptalactone, 298.1 K",4.25 (0.06) × 10^−4 mole fraction
same,solubility x,[1]; [4],3.46 (0.07) × 10^−4 mole fraction
same,solubility at 24 h,[1]; neat ε-caprolactone,1010 µg/mL
same,solubility x,"[1]; neat ε-caprolactone, 298.1 K",3.25 (0.09) × 10^−4 mole fraction
same,solubility at 24 h,"[2]; DMSO-water binary mixture, aqueous with cosolvent or surfactant or cyclodextrin, x*DMSO 0.1, 298.1 K",3.22 mg/mL
same,solubility at 24 h,"[2]; DMSO-water binary mixture, aqueous with cosolvent or surfactant or cyclodextrin, x*DMSO 0.2, 298.1 K",6.95 mg/mL
same,solubility at 24 h,"[2]; DMSO-water binary mixture, aqueous with cosolvent or surfactant or cyclodextrin, x*DMSO 0.3, 298.1 K",10.8 mg/mL
same,solubility at 24 h,"[2]; DMSO-water binary mixture, aqueous with cosolvent or surfactant or cyclodextrin, x*DMSO 0.4, 298.1 K",14.3 mg/mL
same,solubility at 24 h,"[2]; DMSO-water binary mixture, aqueous with cosolvent or surfactant or cyclodextrin, x*DMSO 0.5, 298.1 K",18.4 mg/mL
same,solubility at 24 h,"[2]; DMSO-water binary mixture, aqueous with cosolvent or surfactant or cyclodextrin, x*DMSO 0.6, 298.1 K",21 mg/mL
same,solubility at 24 h,"[2]; DMSO-water binary mixture, aqueous with cosolvent or surfactant or cyclodextrin, x*DMSO 0.7, 298.1 K",24.1 mg/mL
same,solubility at 24 h,"[2]; DMSO-water binary mixture, aqueous with cosolvent or surfactant or cyclodextrin, x*DMSO 0.8, 298.1 K",25.4 mg/mL
same,solubility at 24 h,"[2]; DMSO-water binary mixture, aqueous with cosolvent or surfactant or cyclodextrin, x*DMSO 0.9, 298.1 K",24.1 mg/mL
same,solubility at 24 h,"[2]; DMSO-water series, organic solvent or mixture, x*DMSO 1.0, 298.1 K",21.4 mg/mL
same,solubility x,"[2]; x*DMSO 0.1, 298.1 K",2.11 (0.02) × 10^−4 mole fraction
same,solubility x,"[2]; x*DMSO 0.2, 298.1 K",5.76 (0.06) × 10^−4 mole fraction
same,solubility x,"[2]; x*DMSO 0.3, 298.1 K",1.08 (0.01) × 10^−3 mole fraction
same,solubility x,"[2]; x*DMSO 0.4, 298.1 K",1.69 (0.02) × 10^−3 mole fraction
same,solubility x,"[2]; x*DMSO 0.5, 298.1 K",2.46 (0.02) × 10^−3 mole fraction
same,solubility x,"[2]; x*DMSO 0.6, 298.1 K",3.18 (0.03) × 10^−3 mole fraction
same,solubility x,"[2]; x*DMSO 0.7, 298.1 K",4.01 (0.05) × 10^−3 mole fraction
same,solubility x,"[2]; x*DMSO 0.8, 298.1 K",4.68 (0.03) × 10^−3 mole fraction
same,solubility x,"[2]; x*DMSO 0.9, 298.1 K",4.86 (0.08) × 10^−3 mole fraction
same,solubility x,"[2]; x*DMSO 1.0, 298.1 K",4.63 (0.14) × 10^−3 mole fraction
same,solubility at 24 h,"[3]; NMP-water binary mixture, x*NMP 0.1, 25 °C, aqueous with cosolvent or surfactant or cyclodextrin, x*NMP 0.1, 298.1 K",5.75 mg/mL
same,solubility at 24 h,"[3]; NMP-water binary mixture, x*NMP 0.2, 25 °C, aqueous with cosolvent or surfactant or cyclodextrin, x*NMP 0.2, 298.1 K",12.1 mg/mL
same,solubility at 24 h,"[3]; NMP-water binary mixture, x*NMP 0.3, 25 °C, aqueous with cosolvent or surfactant or cyclodextrin, x*NMP 0.3, 298.1 K",18.2 mg/mL
same,solubility at 24 h,"[3]; NMP-water binary mixture, x*NMP 0.4, 25 °C, aqueous with cosolvent or surfactant or cyclodextrin, x*NMP 0.4, 298.1 K",23.3 mg/mL
same,solubility at 24 h,"[3]; NMP-water binary mixture, x*NMP 0.7, 25 °C, aqueous with cosolvent or surfactant or cyclodextrin, x*NMP 0.7, 298.1 K",34.5 mg/mL
same,solubility at 24 h,"[3]; NMP-water binary mixture, x*NMP 0.8, 25 °C, aqueous with cosolvent or surfactant or cyclodextrin, x*NMP 0.8, 298.1 K",35.9 mg/mL
same,solubility at 24 h,"[3]; NMP-water binary mixture, x*NMP 0.9, 25 °C, aqueous with cosolvent or surfactant or cyclodextrin, x*NMP 0.9, 298.1 K",34.9 mg/mL
same,solubility at 24 h,"[3]; NMP-water binary solvent, 25 °C, aqueous with cosolvent or surfactant or cyclodextrin, x*NMP 0.5, 298.1 K",29.5 mg/mL
same,solubility at 24 h,"[3]; NMP-water binary solvent, 25 °C, aqueous with cosolvent or surfactant or cyclodextrin, x*NMP 0.6, 298.1 K",33 mg/mL
same,solubility at 24 h,"[3]; NMP-water series, x*NMP 1.0, 25 °C, organic solvent or mixture, x*NMP 1.0, 298.1 K",32.7 mg/mL
same,solubility x,"[3]; x*NMP 0.1, 298.1 K",4.43 (0.05) × 10^−4 mole fraction
same,solubility x,"[3]; x*NMP 0.2, 298.1 K",1.23 (0.01) × 10^−3 mole fraction
same,solubility x,"[3]; x*NMP 0.3, 298.1 K",2.32 (0.03) × 10^−3 mole fraction
same,solubility x,"[3]; x*NMP 0.4, 298.1 K",3.53 (0.04) × 10^−3 mole fraction
same,solubility x,"[3]; x*NMP 0.5, 298.1 K",5.24 (0.06) × 10^−3 mole fraction
same,solubility x,"[3]; x*NMP 0.6, 298.1 K",6.71 (0.08) × 10^−3 mole fraction
same,solubility x,"[3]; x*NMP 0.7, 298.1 K",7.95 (0.08) × 10^−3 mole fraction
same,solubility x,"[3]; x*NMP 0.8, 298.1 K",8.96 (0.09) × 10^−3 mole fraction
same,solubility x,"[3]; x*NMP 0.9, 298.1 K",9.53 (0.11) × 10^−3 mole fraction
same,solubility x,"[3]; x*NMP 1.0, 298.1 K",9.80 (0.13) × 10^−3 mole fraction
